# Laboratory results: patent publication US20230172206A1 (BASF SE, priority 2020, published 2023)
# “And” between values parts separate entries of the source, which are not always exact repeats. Identical values can stand only once. Like-named read-outs stand apart in the source and are kept apart here.
# Experiments:
# [1] = test system: Phakopsora pachyrhizi (F129L); assay: Protective control of soybean rust on soybeans (PHAKPA P2); type: in vivo; conditions: protective, inoculation 2 days after spraying, 4 ppm, % diseased leaf area; listed as Ex. 157
# Septoria tritici = assay: Micro titer plate test against leaf blotch on wheat (SEPTTR); type: cell-based; conditions: 0.25 ppm, 7 days after inoculation, relative to compound-free control (100%)
# [2] = test system: Colletotrichum orbiculare; assay: Micro titer plate test against anthracnose (COLLLA); type: cell-based; conditions: 0.063 ppm, 7 days after inoculation, relative to compound-free control (100%)
# Alternaria solani (wt) = type: cell-based; conditions: 7 days after inoculation, relative to compound-free control (100%)
# [3] = test system: Alternaria solani (F129L); assay: Micro titer plate test against early blight (ALTESO F129L); type: cell-based; conditions: 0.016 ppm, 7 days after inoculation, relative to compound-free control (100%)
# Pyrenophora teres (wt) = assay: Micro titer plate test against net blotch on barley (PYRNTE wt); type: cell-based; conditions: 0.25 ppm, 7 days after inoculation, relative to compound-free control (100%)
# Cercospora sojina = type: cell-based; conditions: 4 ppm, 7 days after inoculation, relative to compound-free control (100%)
# Microdochium nivale = type: cell-based; conditions: 0.016 ppm, 7 days after inoculation, relative to compound-free control (100%)
# [4] = test system: Phakopsora pachyrhizi (F129L); assay: Protective control of soybean rust on soybeans (PHAKPA P6); type: in vivo; conditions: protective, inoculation six days after spraying, 16 ppm, % diseased leaf area; listed as Ex. 153
# Leptosphaeria nodorum = assay: Micro titer plate test against wheat leaf spots (LEPTNO); type: cell-based; conditions: 0.063 ppm, 7 days after inoculation, relative to compound-free control (100%)
Structure (SMILES),PHAKPA (F129L) Disease level (%) P2 at 4 ppm [1],Fungal growth (%) SEPTTR (Septoria tritici) [%],Fungal growth (%) COLLLA [2] [%],Fungal growth (%) ALTESO wt (Alternaria solani (wt); 0.25 ppm) [%],Fungal growth (%) ALTESO F129L [3] [%],Fungal growth (%) PYRNTE wt (Pyrenophora teres (wt)) [%],Fungal growth (%) CERCSO (Cercospora sojina) [%],Fungal growth (%) MONGNI (Microdochium nivale) [%],PHAKPA (F129L) Disease level (%) P6 at 16 ppm [4],Fungal growth (%) LEPTNO (Leptosphaeria nodorum) [%],Fungal growth (%) ALTESO wt (Alternaria solani (wt); 0.016 ppm) [%]
CNC(=O)/C(=N/OC)c1cccc(C)c1CO/N=C(\C)c1cccc(Cl)c1 [compound 157],0% and 1%,20,63,27,57,54,36,56,,,
CO/N=C(/C(=O)OC)c1cccc(C)c1CO/N=C(\C)c1cccc(Cl)c1 [compound 153],,0,55,,68,31,26,75,1% and 5%,55,71
